Measurements taken from patent publication US20100331384A1, “GUANIDINE BASED COMPOUNDS” (UNIVERSIDAD DEL PAIS VASCO/EUSKAL HERRIKO UNIBERTSITATEA, priority 2007, published 2010).

How the values were obtained:
α2-ARs [1] = molecular target: T1, α2-ARs (Homo sapiens, UniProt P08913); test: [3H]RX821002 competition binding assay in human brain PFC membranes; settings: human brain PFC tissue, competition with [3H]RX821002 1 nM
T1 construct: other: human brain tissue in vitro; other: stimulation of [35S]GTPγS b
Procedure: (§1) Preparation of membranes. Neural membranes (P2 fractions) were prepared from the PFC of human brains obtained at autopsy in the Instituto Vasco de Medicina Legal, Bilbao, Spain. Postmortem human brain samples of each subject (˜1 g) were homogenized using a Teflon-glass grinder (10 up-and-down strokes at 1500 rpm) in 30 volumes of homogenization buffer (1 mM MgCl2, and 5 mM Tris-HCl, pH 7.4) supplemented with 0.25 M sucrose. The crude homogenate was centrifuged for 5 min at 1000×g ([…]) and the supernatant was centrifuged again for 10 min at 40000×g (4° C.). The resultant pellet was washed twice in 20 volumes of homogenization buffer and recentrifuged in similar conditions. Aliquots of 1 mg protein were stored at −70° C. until assay.
[^3H]RX821002 binding assays. […] Incubations were terminated by diluting the samples with 5 ml of ice-cold Tris incubation buffer (4° C.). Membrane bound [^3H]RX821002 was separated by vacuum filtration through Whatman GF/C glass fibre filters. Then, the filters were rinsed twice with 5 ml of incubation buffer and transferred to minivials containing 3 ml of OptiPhase “HiSafe” II cocktail and counted for radioactivity by liquid scintillation spectrometry. Specific binding was determined and plotted as a function of the compound concentration. Non-specific binding was determined in the presence of adrenaline (10^−5 M).
Analysis of binding data. Analysis of competition experiments to obtain the inhibition constant (Ki) were performed by nonlinear regression using the GraphPad Prism program. All experiments were analysed assuming a one-site model of radioligand binding. Ki values were normalized to pKi values.

[2] = test system: extracellular NA levels in the PFC; test: In vivo microdialysis in the PFC, extracellular NA; design: species or system male Sprague Dawley rats; settings: for Emax of increase in extracellular NA levels: local administration by reverse dialysis 1-100 μM in PFC, percentage of basal values
Description: Intracerebral microdialysis is a neurochemical technique that has been applied extensively in pharmacological studies aimed at investigating the effect of different drugs on brain neurotransmission. This technique allows one to collect a representative concentration of different neurotransmitters of the area where the probe is implanted while the animals are awake and freely moving.^21
Most antidepressant drugs are able to increase NA extracellular concentrations in different brain areas as the PFC, an area implicated in depression disease. Considering that α2-ARs exert a tonic inhibitory action on NA release from the noradrenergic terminals we assessed the ability of these two new compounds to increase NA extracellular concentration in this area. First, we tested the drugs when administered locally in order to confirm their antagonistic activity over α2-ARs in vivo.
A second step was to study the effect of these compounds increasing NA extracellular concentrations when administered systemically.
In Vivo Microdialysis assays. The experiments were carried out in male Sprague Dawley rats weighing between 250 g and 300 g. At the beginning of the experiments, animals were anaesthetized with chloral hydrate (400 mg/kg i.p.) and a microdialysis probe was implanted by stereotaxic surgery into prefrontal cortex (PFC) brain area. The coordinates selected for the PFC were as follows: AP (anterior to bregma) +2.8 mm, L (lateral from the mid-sagittal suture) +1 mm, DV (ventral from the dura surface) −5 mm.^22 After 24 hours for animal recovery, perfusion fluid (artificial cerebrospinal fluid) is pumped through the probe at a flow rate of 1 μl/min. In the semipermeable membrane, that is the critical side of the probe and is placed on the selected area, molecules flow into and out the cannulae by diffusion. Therefore, microdialysis technique allows local administration of substrates dissolved in the perfusion fluids.
When drugs were locally administered, they were dissolved in a CSF and applied during 70 min via dialysis probe implanted in the PFC in increasing concentrations of 1, 10 and 100 μM. The compounds systemically administered were dissolved in saline and injected intraperitoneally.
Samples, collected with the microdialysis procedure (every 35 min), were analyzed by HPLC with electrochemical detection. NA concentrations were monitorizated by an amperometric detector (Hewlett-Packard model 1049A) at an oxidizing potential of +650 mV. The movil phase (12 mM citric acid, 1 mM EDTA, 0.7 mM octylsodio sulfate, pH 5 and 10% methanol) was filtered, degassed (Hewlett-Packard model 1100 degasser) and delivered at a flow rate of 0.2 ml/min by a Hewlett-Packard model 1100 pump. Stationary phase was a column of 150×2.1 mm (Thermo Electron Corporation, U.S.A.). Samples (injection volume 37 μl) were injected and NA analized in a run time of 10 min. Solution of standard noradrenaline was injected every working day to create a new calibration table.
The mean values of the first three samples before substrate administration were considered as 100% basal value. All measures of extracellular NA concentrations are expressed as percentage of the baseline value±s.e.mean. One way analysis of variance (ANOVA) for control group or two way ANOVA between control and each treated group was assessed for statistical analysis. After the experiments, rats were sacrificed with an overdose of chloral hydrate and the brains were dissected to check the correct implantation of the probe.

α2-ARs [3] = molecular target: T1, α2-ARs; test: [35S]GTPγS binding functional assay, compounds alone; format: biochemical; settings: for agonistic or antagonistic properties in [35S]GTPγS experiments: human brain PFC; for stimulation of [35S]GTPγS binding by the compound on its own: human brain PFC membranes
Procedure: The [^35S]GTPγs binding assay constitutes a functional measure of the interaction of the receptor and the G-protein and is a useful tool to distinguish between agonists (increasing the nucleotide binding), inverse agonists (decreasing the nucleotide binding), and neutral antagonists (not affecting the nucleotide binding) of GPCRs.^20 Experiments were performed in low-affinity receptor conditions for agonists (presence of guanine nucleotides and sodium in the medium), and therefore, typical potency values are two-three logarithmic units lower than affinity values obtained in radioligand receptor binding experiments.^20
as §1
[^35S]GTPγs binding assays. The incubation buffer for measuring [^35S]GTPγs binding to brain membranes contained, in a total volume of 500 μL, 1 mM EGTA, 3 mM MgCl2, 100 mM NaCl, […], 50 mM Tris-HCl at pH 7.4 and 0.5 nM [^35S]GTPγs. Proteins aliquots were thawed and re-suspended in the same buffer. The incubation was started by addition of the membrane suspension (40 μg of membrane proteins) to the previous mixture and was performed at 30° C. for 120 min with shaking. In order to evaluate the influence of the compounds on [^35S]GTPγs binding, 8 concentrations (10^−10 to 10^−3M) of the different compounds were added to the assay. Incubations were terminated by adding 3 mL of ice-cold re-suspension buffer followed by rapid filtration through Whatman GF/C filters pre-soaked in the same buffer. The filters were rinsed twice with 3 mL of ice-cold re-suspension buffer, transferred to vials containing 5 mL of OptiPhase HiSafe II cocktail (Wallac, UK) and the radioactivity trapped was determined by liquid scintillation spectrometry (Packard 2200CA). […] Non-specific binding of the radioligand was defined as the remaining [^35S]GTPγs binding in the presence of 10 μM unlabelled GTPγs.

mice = test: Tail suspension test; format: in vivo; settings: compared with saline control, FIG. 4
Description: The tail suspension test as illustrated in FIG. 4 has become one of the most widely used models for assessing antidepressant-like activity in mice. The test is based on the fact that animals subjected to the short-term, inescapable stress of being suspended by their tail, will develop an immobile posture. Antidepressant medications encourage the animal to struggle and promote the occurrence of escape-related behaviour.

α2-ARs [4] = molecular target: T1, α2-ARs; test: [3H]RX821002 competition binding assay in human brain PFC membranes; settings: human brain tissue in vitro
[5] = test system: cloned human α2-AR receptor; settings: disclosed in WO9846572; cited from earlier work

T1 sequence (P08913 whole entry): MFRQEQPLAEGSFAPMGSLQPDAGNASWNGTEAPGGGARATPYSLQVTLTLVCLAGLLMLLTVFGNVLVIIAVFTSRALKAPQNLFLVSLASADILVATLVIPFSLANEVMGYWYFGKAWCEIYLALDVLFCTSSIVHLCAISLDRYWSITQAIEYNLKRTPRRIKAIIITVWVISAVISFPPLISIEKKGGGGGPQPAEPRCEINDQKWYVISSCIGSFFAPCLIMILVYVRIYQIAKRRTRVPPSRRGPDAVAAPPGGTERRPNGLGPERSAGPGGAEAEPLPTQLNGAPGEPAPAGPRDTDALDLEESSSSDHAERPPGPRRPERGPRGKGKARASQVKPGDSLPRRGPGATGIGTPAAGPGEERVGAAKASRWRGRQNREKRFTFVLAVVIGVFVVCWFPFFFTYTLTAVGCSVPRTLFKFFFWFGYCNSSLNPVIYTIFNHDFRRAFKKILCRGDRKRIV

| affinity for the α2-ARs expressed as pKi (α2-ARs [1]) | ability to cross the blood brain barrier (BBB) ([2]; deduced from NA increase after systemic administration) | Compound | Emax of increase in extracellular NA levels [2] [%] | agonistic or antagonistic properties in [35S]GTPγS experiments (α2-ARs [3]) | stimulation of [35S]GTPγS binding by the compound on its own (α2-ARs [3]) | α2-AR antagonist properties in vivo ([2]; local and systemic administration, rats) | increase of NA extracellular concentration, maximal effect ([2]; systemic (intraperitoneal) administration, evaluated in PFC) [%] | immobility period (mice) | affinity towards the α2-ARs compared with references (α2-ARs [4]) | Emax (α2-ARs [3]; read-out: Emax (%), percentage efficacy relative to UK14304) [%] | activity at cloned human α2-AR receptor [5] |
| --- | --- | --- | --- | --- | --- | --- | --- | --- | --- | --- | --- |
| 9.04 |  | COC1(C2=NCCN2)COc2ccccc2O1 (stereo not drawn) [RX821002, 2-methoxy-idazoxan, reference compound] | 287±49 |  |  |  |  |  |  |  |  |
|  | able to cross the blood brain barrier | c1cc(NC2=NCCN2)ccc1CCc1ccc(NC2=NCCN2)cc1 [Compound 20b, 4,4′-di(2-imidazolidinylimino)-1,2-diphenylethane] | 255±76 | antagonistic properties | did not stimulate binding | α2-AR antagonist properties in vivo | 156±35 | slightly shorter immobility period than the saline control | within the range of those of Idazoxan and/or Clonidine |  |  |
|  |  | c1cc2c(cc1NC1=NCCN1)CCC2 [Compound 9b, 5-(2-imidazolidinylimino)indan] |  | agonistic properties | stimulated binding |  |  |  | within the range of those of Idazoxan and/or Clonidine | 98 | agonist |
